Laboratory results from ChEMBL document CHEMBL1129074, “Inhibitors of human immunodeficiency virus type 1 derived from gp41 transmembrane protein: structure--activity studies” (J Med Chem, 1996).
Peptide text beside a SMILES is read from it.

Test system: MT4
Experiment: Inhibitory potency of gp41 fragment against HIV-1 induced cytopathic effect in MT-4 cell assay
Assay type: functional, cell-based
Details: Homo sapiens

Row | SMILES | IC50 [µM]
1 | CC[C@H](C)[C@H](NC(=O)[C@H](CCCN=C(N)N)NC(=O)[C@H](C)NC(=O)[C@H](CCC(N)=O)NC(=O)[C@H](CC(C)C)NC(=O)[C@H](CCC(N)=O)NC(=O)CCCCCNC(=O)CNC(=O)[C@H](Cc1c[nH]c2ccccc12)NC(=O)[C@@H](NC(=O)[C@@H](NC(=O)[C@H](CC(C)C)NC(=O)[C@H](CCC(N)=O)NC(=O)[C@H](CC(C)C)NC(=O)[C@H](CC(C)C)NC(=O)[C@H](Cc1c[nH]cn1)NC(=O)[C@H](CCC(N)=O)NC(C)=O)[C@@H](C)O)C(C)C)C(=O)N[C@@H](CC(C)C)C(=O)N[C@@H](C)C(=O)N[C@H](C(=O)N[C@@H](CCC(=O)O)C(=O)O)C(C)C (HELM PEPTIDE1{[ac].Q.H.L.L.Q.L.T.V.W.G.[O=C(CCCCCN[*:1])[*:2]].Q.L.Q.A.R.I.L.A.V.E}$$$$V2.0) | 40
2 | CC[C@H](C)[C@H](NC(=O)CNC(=O)[C@H](Cc1c[nH]c2ccccc12)NC(=O)[C@@H](NC(=O)[C@@H](NC(=O)[C@H](CC(C)C)NC(=O)[C@H](CCC(N)=O)NC(=O)[C@H](CC(C)C)NC(=O)[C@H](CC(C)C)NC(=O)[C@H](Cc1c[nH]cn1)NC(=O)[C@H](C)NC(=O)[C@H](CCC(N)=O)NC(=O)[C@H](C)NC(=O)[C@H](CCC(=O)O)NC(=O)[C@@H](NC(=O)[C@H](C)NC(=O)[C@H](CCCN=C(N)N)NC(=O)[C@H](C)NC(=O)[C@H](CC(C)C)NC(=O)[C@H](CC(N)=O)NC(=O)[C@H](CC(N)=O)NC(C)=O)[C@@H](C)CC)[C@@H](C)O)C(C)C)C(=O)N[C@@H](CCCCN)C(=O)N[C@@H](CCC(N)=O)C(=O)N[C@@H](CC(C)C)C(=O)N[C@@H](CCC(N)=O)C(=O)N[C@@H](C)C(=O)N[C@@H](CCCN=C(N)N)C(=O)N[C@H](C(=O)N[C@@H](CC(C)C)C(=O)N[C@@H](C)C(=O)N[C@H](C(=O)N[C@@H](CCC(=O)O)C(=O)N[C@@H](CCCN=C(N)N)C(=O)N[C@@H](Cc1ccc(O)cc1)C(=O)N[C@@H](CC(C)C)C(=O)N[C@@H](CCCCN)C(=O)N[C@@H](CC(=O)O)C(=O)N[C@@H](CCC(N)=O)C(=O)O)C(C)C)[C@@H](C)CC (Ac-NNLARAIEAQAHLLQLTVWGIKQLQARILAVERYLKDQ-OH) | 3
3 | CC[C@H](C)[C@H](NC(C)=O)C(=O)N[C@@H](CCC(=O)O)C(=O)N[C@@H](C)C(=O)N[C@@H](CCC(N)=O)C(=O)N[C@@H](CCC(N)=O)C(=O)N[C@@H](Cc1c[nH]cn1)C(=O)N[C@@H](CC(C)C)C(=O)N[C@@H](CC(C)C)C(=O)N[C@@H](CCC(N)=O)C(=O)N[C@@H](CC(C)C)C(=O)N[C@H](C(=O)N[C@H](C(=O)N[C@@H](Cc1c[nH]c2ccccc12)C(=O)NCC(=O)N[C@H](C(=O)N[C@@H](CCCCN)C(=O)N[C@@H](CCC(N)=O)C(=O)N[C@@H](CC(C)C)C(=O)N[C@@H](CCC(N)=O)C(=O)N[C@@H](C)C(=O)N[C@@H](CCCN=C(N)N)C(=O)N[C@H](C(=O)N[C@@H](CC(C)C)C(=O)N[C@@H](C)C(=O)N[C@H](C(=O)N[C@@H](CCC(=O)O)C(=O)O)C(C)C)[C@@H](C)CC)[C@@H](C)CC)C(C)C)[C@@H](C)O (Ac-IEAQQHLLQLTVWGIKQLQARILAVE-OH) | 6.5
